A short description of the data set: gradient 5% acetonitrile 3 min, to 50% in 2 min, to 85% in 15 min, held 3 min, 100 µL/min. Conditions: column: Zorbax Extend-C18 2.1 x 50 mm; eluents: water / acetonitrile, 0.1% formic acid. In outline:
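Values are retention times taken from adduct peaks that software picked and an analyst inspected. The pure standards were run as mixtures of ~100 molecules on HPLC linked to a quadrupole time-of-flight mass spectrometer, in positive and negative ionization mode. A Zorbax Extend-C18 column (2.1 × 50 mm, 1.8 μm) was used at 100 μL/min with water and acetonitrile, each including 0.1% formic acid.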
`O=C(Nc1ccc(O)c(C(=O)O)c1)Oc1ccccc1` returned an RP-LC retention time of 801 s.
The same measure for `Cc1nnc(N2CCCC(C(=O)NCc3ccc(F)cc3)C2)c2nn(-c3ccccc3)c(C)c12` (stereo unspecified): 720 s; for `O=C(Nc1cnc(-c2cccnc2)nc1)C1CCCCC1`: 681 s; for `CS(=O)(=O)N1CCN(C(=O)CCc2csc(NC(=O)c3ccc(F)cc3)n2)CC1`: 666 s.
The result for `COCc1cnc2c(c1SCc1cccc(Cl)c1)c(=O)n(C)c(=O)n2C` reads 1060 s; that for `Cn1nc(-c2nnc(-c3ccccc3)o2)c2c1CCN(S(=O)(=O)c1ccccc1C(F)(F)F)C2`, 990 s; that for `COc1ccc(NC(=O)Cn2nc3cc(C)nc(-c4ccccc4)n3c2=O)c(OC)c1`, 830 s.
The result for `FC(F)(F)c1nc2ccccc2n1CC1CCN(Cc2cn3ccccc3n2)CC1` reads 557 s; that for `CN(CC#N)C(=O)c1nn(C)c2c1COc1ccccc1-2`, 834 s.
The compound `COc1ccc(NC(=O)N2CCC3(C2)C(=O)Nc2ccccc23)cc1OC` (stereo unspecified) yielded an RP-LC retention time of 676 s.
Compound `CCCS(=O)(=O)c1nc2ccc(NS(=O)(=O)c3cc(C)ccc3C)cc2s1` yielded an RP-LC retention time of 958 s.
The same measure for `CCCCOc1ccc(-c2cc3c4nnc(CCC(=O)NCc5ccc(F)cc5)n4ccn3n2)cc1`: 952 s; for `CCCCN1C(=O)C(C)(C(=O)NC2CCN(Cc3ccccc3)CC2)Oc2cccnc21` (stereo unspecified): 694 s.
The same measure for `CCC1(CC=C2CCCCC2)C(=O)NC(=O)NC1=O`: 863 s.
The same measure for `CN(CCCNC(=O)C1CCCN(S(=O)(=O)c2ccc3c(ccn3C)c2)C1)Cc1ccccc1` (stereo unspecified): 696 s.
`COc1cccc(NC(=O)N2CCC[C@@H]2C(=O)NCc2csc(-c3cccs3)n2)c1`: the RP-LC retention time came out at 773 s.
The same measure for `COc1ccc(C(=C2C(=O)Nc3ccccc32)c2ccc(OC)cc2)cc1`: 974 s; for `O=C(NCC1(c2cccs2)CC1)c1ccc(F)c(F)c1`: 887 s; for `CCc1nc2cc(N3CCC(C(=O)NCC4CCCO4)CC3)cnc2nc1CC` (stereo unspecified): 670 s.
The same measure for `CCCCOc1ccc(C(=O)NC2(c3nc(C)no3)CCCCC2)cc1`: 1080 s.
The same measure for `Fc1ccccc1-c1nnc(CN2CCN(c3ccccn3)CC2)o1`: 596 s; for `CC(C)CCNC(=O)N1CCN(c2ncccc2-c2nnc(C3CC3)o2)CC1`: 765 s.
Regarding `CCc1cccc(NC(=O)N2CCC(c3cc(N)on3)CC2)c1`, the RP-LC retention time is 751 s.
The same measure for `Cc1cc2c(c(=O)n(-c3ccccc3)c(=O)n2CC(=O)Nc2ccc(Br)cc2)n1C`: 877 s; for `CCc1nc2cc(-c3noc(-c4cccc(OC)c4OC)n3)ccc2o1`: 1130 s; for `CCc1ccc(Nc2c(C(=O)N3CCCCC3C)cnc3nc(C)ccc23)cc1` (stereo unspecified): 674 s.
The result for `Cc1cc(NC(=O)C2CCN(C(=O)Cc3c(C)noc3C)CC2)no1` reads 621 s.
The same measure for `COc1ccccc1NC(=O)N1CCC(CNC(=O)C(=O)Nc2cccnc2)CC1`: 591 s; for `CCOC(=O)c1noc2ncnc(N(C)Cc3ccccc3)c12`: 988 s.
`O=C(c1ccccn1)N1CCCn2nc(-c3ccc(Cl)cc3)cc2C1`: the RP-LC retention time was 817 s.
The result for `CCCCNC(=O)c1nc(Nc2ccc(CC)cc2)c2ccccc2n1` reads 916 s.
The same measure for `Cc1cc(NCC2CCCO2)n2nc(-c3ccc(Cl)cc3)c(C)c2n1` (stereo unspecified): 723 s; for `CC(C)NC(=O)N1CCC(Oc2ccccc2)C1` (stereo unspecified): 764 s.
The same measure for `COc1ccc(C(=O)NC2CCN(c3cc(-c4ccc(Cl)cc4)[nH]n3)C2)cc1OC` (stereo unspecified): 738 s; for `CC(=O)Nc1nc(-c2ccc3c(c2)NC(=O)CO3)cs1`: 633 s; for `Cn1nc(C(=O)N2CCCC(C(=O)N3CCCC3)C2)c2c1CCN(C(=O)c1ccccc1F)C2` (stereo unspecified): 658 s.
`CC(C)(C)C(=O)N1CCN(Cc2noc(-c3ccc(F)cc3)n2)CC1` had an RP-LC retention time of 712 s.
The result for `Cc1ccc(C(=O)N2CCC3(CC2)N=C(c2cccc(Br)c2)NO3)cc1` reads 938 s; that for `COc1ncccc1CNC(=O)COc1ccccc1`, 677 s.
The result for `CCOc1ccc(C2=NC3(CCN(C(C)C)CC3)NC(c3cc(Br)ccc3O)C2)cc1` (stereo unspecified) reads 654 s.
Turning to `CCOC(=O)Cn1c(C2CCCN2C(=O)CC)nc2ccccc21` (stereo unspecified), the RP-LC retention time was 613 s.
The compound `Cc1nc(-c2csc(S(=O)(=O)N3CCC(C(=O)N4CCC5(CC4)OCCO5)CC3)c2)no1` registered an RP-LC retention time of 765 s.
Compound `O=C(C1CCCN(c2nc3ccccc3n3cccc23)C1)N1CCN(c2ccc(F)cc2)CC1` (stereo unspecified) showed an RP-LC retention time of 805 s.
The same measure for `COC(=O)c1cnc2nc(C)ccc2c1NCc1ccccc1`: 658 s; for `Cc1cc(C)c(C)c(S(=O)(=O)N2CCN(c3nc4ccncc4n(C)c3=O)CC2)c1C`: 755 s.
The result for `Cn1c(=O)c(=O)n(C)c2cc(N3CCOCC3)c(NC(=O)c3ccco3)cc21` reads 663 s.
The same measure for `CC1CCN(C(=O)C2CCCN(C(=O)c3nnc(C(=O)Nc4ccc(F)cc4)s3)C2)CC1` (stereo unspecified): 661 s; for `O=C(NCc1ccc2c(c1)OCO2)c1nnc(-c2ccc(S(=O)(=O)N3CCCCC3)cc2)o1`: 948 s.
On to `CCc1ccc(N2C(=O)C3N=NN(Cc4nc(-c5cccc(Br)c5)no4)C3C2=O)cc1` (stereo unspecified), for which the RP-LC retention time was found to be 1120 s.
`CCCCN(CC)S(=O)(=O)c1ccc(C(=O)Nc2nc3c(s2)Cc2ccccc2-3)cc1` showed an RP-LC retention time of 1230 s.
The same measure for `O=C(Cn1nc2c(cc1=O)CCCCC2)NCCc1nc(-c2ccccc2)cs1`: 843 s; for `N#Cc1cccc(NC(=O)Cc2csc3nc(-c4ccccc4)cn23)c1`: 782 s; for `O=C(NCc1ccccc1F)c1sc2ncccc2c1-n1cccc1`: 961 s.
The same measure for `CCNC(=O)Nc1cccnc1N1CCCCC1`: 577 s; for `O=C(Nc1cccc(Cl)c1)N1CCN(Cc2nc3ccccc3o2)CC1`: 728 s.
The same measure for `O=C(Cc1ccsc1)Nc1ccc2c(N3CCOCC3)ncnc2c1`: 619 s; for `CCN(CC)C(=O)c1cc2c(s1)CCC(C(=O)Nc1ccc3c(c1)OCCO3)C2` (stereo unspecified): 775 s.
The compound `CCOC(=O)C1CCN(CC(O)COC2CCCC2)CC1` (stereo unspecified) showed an RP-LC retention time of 562 s.
The same measure for `COc1cc(-c2noc(-c3nc(-c4ccc(C)cc4)no3)n2)cc(OC)c1OC`: 1260 s; for `COc1ccc(OC)c(NC(=O)COc2nc(C)nc3ccccc23)c1`: 725 s; for `COc1ccc(CNC(=O)CSc2nccc(N3CCN(c4cc(C)ccc4C)CC3)n2)cc1`: 861 s.
The same measure for `COC(=O)c1ccc(NC(=O)c2cnc3c(c2)c(=O)n(C)c(=O)n3-c2ccccc2)cc1`: 879 s; for `Cc1cc(C)c(C(=O)N2CCCC(C(=O)N3CCN(c4cccc(C)c4C)CC3)C2)[nH]1` (stereo unspecified): 996 s.
The result for `Cc1nnc(-c2cc(NS(C)(=O)=O)c(C)s2)o1` reads 697 s; that for `O=C(NCCc1nc2ccccc2n1CC(=O)N1CCCC1)c1cccnc1`, 566 s.
Regarding `Cc1csc(-c2cc(S(=O)(=O)Nc3cc(Cl)ccc3C)c(C)s2)n1`, the RP-LC retention time amounted to 1110 s.
The same measure for `CCc1nncn1C1CCN(S(=O)(=O)c2ccc(OC)c(OC)c2)CC1`: 650 s; for `COc1ccc(Cl)cc1S(=O)(=O)N1CCC(n2cnnc2C(C)C)CC1`: 732 s.
For `CN(CC1CCCO1)c1nc(-c2ccc([N+](=O)[O-])cc2)cs1` (stereo unspecified), the RP-LC retention time turned out to be 1110 s.
The result for `Cc1cc(C)n(-c2ccnc(N3CCC(C(=O)NCC4CC4)CC3)n2)n1` reads 739 s; that for `Cc1cccc(-c2nc3cnccn3c2NCCC(=O)N2CCCC2)c1`, 650 s.
The same measure for `CC(C)c1nccn1C1CN(C(=O)C(C)c2ccccc2)C1` (stereo unspecified): 612 s.
`COc1ccc(N2CCN(c3cc(SCC(=O)Nc4ccc(OC)cc4OC)ncn3)CC2)cc1` returned an RP-LC retention time of 962 s.
The same measure for `CCCCC(=O)N1CCN(c2nc(C)cc(NCC)n2)CC1`: 618 s; for `CCCN1CCn2cc(S(=O)(=O)Nc3ccc(C)cc3)cc2C1=O`: 771 s; for `CCOC(=O)c1nc(Nc2cccc(C)c2C)c2ccccc2n1`: 826 s.
The same measure for `Cc1cnc(CC2CCN(C(=O)Nc3ccc4c(c3)OCCO4)C2)n1C1CC1` (stereo unspecified): 612 s.
The same measure for `CCc1ccc(CNC(=O)Cc2c(C(=O)O)c(C)cn2C)cc1`: 815 s; for `CCN1CCN(CCNC(=O)Cn2c(=O)n(-c3ccccc3)c3ncccc32)CC1`: 564 s; for `CCc1ccc(-c2cc(C(=O)N3CCN(C)CC3)[nH]n2)cc1`: 620 s.
The compound `O=C(CCc1c(-c2ccccc2)nc2ccccn12)Nc1cccc(F)c1` returned an RP-LC retention time of 692 s.

(Values after the METLIN SMRT retention time set (Domingo-Almenara et al. 2019).)
